Measurements published in US20250197359A1, “CANNABINOID RECEPTOR MODULATING COMPOUNDS” (The U.S.A., as Represented by the Secretary, Department of …, priority 2022, published 2025).
Like-named read-outs stand apart in the source and are kept apart here.

Assays:
Brain/CB1 = biological target: T1, Brain/CB1 (Mus musculus, UniProt P47746); assay: Functional GTPγS binding, Brain/CB1; assay type: biochemical
T1 construct: from tissue; host or cells: mouse brain membranes
Description: Furthermore, the intermediates urea compounds 8a-m were chlorinated with phosphorus oxychloride in the presence of DIPEA base to form imidoyl chloride intermediate and reacted with acetamidine hydrochloride/methyl carbamimidothioate iodide/methyl carbamimidoselenoate iodide and other amines to furnish the target compounds (10a-34b) (Scheme 2, FIG. 2, Scheme 5, FIG. 5). The urea derivatives were converted to the thiourea derivatives 9a-9d by employing sodium thiosulfate. Compound 8a-b, 8e-f were converted to corresponding thiourea by employing sodium thiosulfate dissolved in water dioxane mixture and the reaction was heated to 85° C. for 2 h. […] The binding constant for the synthesized compounds were determined by using radioligand binding assay in mouse brain membranes as well as the target compounds were evaluated in vitro at the human CB1 receptor, stably expressed into Chinese hamster ovary (CHO) cells as well as mouse brain membrane CB1.

CB1 = CB1 (UniProt P21554); assay: CB1 radioligand binding assay; parameters: species or system human
Experimental: The target compounds were evaluated in vitro at the human CB1 receptor, stably expressed into Chinese hamster ovary (CHO) cells by utilizing radioligand binding studies.
The binding constant for the synthesized compounds were determined by using radioligand binding assay in mouse brain membranes as well as the target compounds were evaluated in vitro at the human CB1 receptor, stably expressed into Chinese hamster ovary (CHO) cells as well as mouse brain membrane CB1. […]

T1 sequence (P47746 whole entry): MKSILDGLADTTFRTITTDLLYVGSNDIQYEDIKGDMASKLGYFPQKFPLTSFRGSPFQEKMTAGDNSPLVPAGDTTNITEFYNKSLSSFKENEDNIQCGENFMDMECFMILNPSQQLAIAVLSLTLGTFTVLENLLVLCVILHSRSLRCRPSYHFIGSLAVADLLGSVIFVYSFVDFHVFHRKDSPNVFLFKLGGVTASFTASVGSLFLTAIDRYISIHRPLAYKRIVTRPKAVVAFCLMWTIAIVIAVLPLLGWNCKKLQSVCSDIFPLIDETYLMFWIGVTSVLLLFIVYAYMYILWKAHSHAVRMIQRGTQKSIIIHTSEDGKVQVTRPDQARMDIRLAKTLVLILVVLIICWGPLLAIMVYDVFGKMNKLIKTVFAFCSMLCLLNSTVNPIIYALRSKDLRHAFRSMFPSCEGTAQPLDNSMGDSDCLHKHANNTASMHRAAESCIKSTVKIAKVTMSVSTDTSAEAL

For `C/C(N)=N\C(=N\S(=O)(=O)c1ccc(C(F)(F)F)cc1)N1CCC(c2ccccc2)C(c2ccc(Cl)cc2)=N1` (single isomer, unassigned) [Compound 10bE1, (Z)—N—((E)-1-aminoethylidene)-3-(4-chlorophenyl)-4-phenyl-N′-((4-(trifluoromethyl)phenyl)sulfonyl)-5,6-dihydropyridazine-1 (4H)-carboximidamide], the IC50 (Brain/CB1) was greater than 1000 nM.
Work on `CCC(N/C(=N/S(=O)(=O)c1ccc(C(F)(F)F)cc1)N1CCC(c2ccccc2)C(c2ccc(Cl)cc2)=N1)C(N)=O` (single isomer, unassigned) [Compound 32a, (Z)-2-(3-(4-chlorophenyl)-4-phenyl-N′-((4-(trifluoromethyl)phenyl)sulfonyl)-1,4,5,6-tetrahydropyridazine-1-carboximidamido) butanamide] yielded a Ki (CB1; read-out: Ki (CB1)) of 785 nM.
Work on `C/C(N)=N/C(=N/S(=O)(=O)c1ccc(C(F)(F)F)cc1)N1CCC(c2ccccc2)C(c2ccc(F)cc2)=N1` (stereo not shown) [Compound 10zc, (Z)—N—((Z)-1-aminoethylidene)-3-(4-fluorophenyl)-4-phenyl-N′-((4-(trifluoromethyl)phenyl)sulfonyl)-5,6-dihydropyridazine-1 (4H)-carboximidamide] yielded a Ki (CB1; read-out: Ki (CB1)) of 120 nM.
In the case of `CS/C(N)=N\C(=N\S(=O)(=O)c1ccc(Cl)cc1)N1CCC(c2ccccc2)C(c2ccc(Cl)cc2)=N1` (stereo not shown) [Compound 11a, methyl (Z)—N′—((Z)-(3-(4-chlorophenyl)-4-phenyl-5,6-dihydropyridazin-1 (4H)-yl)(((4-chlorophenyl)sulfonyl)imino)methyl)carbamimidothioate], the Ki (CB1; read-out: Ki (CB1)) is reported as 210 nM.
Compound `CS/C(N)=N\C(=N\S(=O)(=O)c1cccc(C(F)(F)F)c1)N1CCC(c2ccccc2)C(c2ccc(Cl)cc2)=N1` (stereo not shown) [Compound 11c, methyl (Z)—N′—((Z)-(3-(4-chlorophenyl)-4-phenyl-5,6-dihydropyridazin-1 (4H)-yl)(((3-(trifluoromethyl)phenyl)sulfonyl)imino)methyl)carbamimidothioate] has a Ki (CB1; read-out: Ki (CB1)) of 234 nM.
`CS/C(N)=N\C(=N\S(=O)(=O)c1ccc(OC(F)(F)F)cc1)N1CCC(c2ccccc2)C(c2ccc(Cl)cc2)=N1` (stereo not shown) [Compound 11d, methyl (Z)—N′—((Z)-(3-(4-chlorophenyl)-4-phenyl-5,6-dihydropyridazin-1 (4H)-yl)(((4-(trifluoromethoxy)phenyl)sulfonyl)imino)methyl)carbamimidothioate] gave a Ki (CB1; read-out: Ki (CB1)) of 151 nM.
`CS/C(N)=N\C(=N\S(=O)(=O)c1ccc(C#N)cc1)N1CCC(c2ccccc2)C(c2ccc(Cl)cc2)=N1` (stereo not shown) [Compound 11e, methyl (Z)—N′—((Z)-(3-(4-chlorophenyl)-4-phenyl-5,6-dihydropyridazin-1 (4H)-yl)(((4-cyanophenyl)sulfonyl)imino)methyl)carbamimidothioate] showed a Ki (CB1; read-out: Ki (CB1)) of 138 nM.
In the case of `CS/C(N)=N\C(=N\S(=O)(=O)c1ccc2ccccc2c1)N1CCC(c2ccccc2)C(c2ccc(Cl)cc2)=N1` (stereo not shown) [Compound 11f, methyl (Z)—N′—((Z)-(3-(4-chlorophenyl)-4-phenyl-5,6-dihydropyridazin-1 (4H)-yl)((naphthalen-2-ylsulfonyl)imino)methyl)carbamimidothioate], the Ki (CB1; read-out: Ki (CB1)) is reported as 590 nM.
In the case of `CS/C(N)=N\C(=N\S(=O)(=O)c1ccccc1)N1CCC(c2ccccc2)C(c2ccc(Cl)cc2)=N1` (stereo not shown) [Compound 11g, methyl (Z)—N′—((Z)-(3-(4-chlorophenyl)-4-phenyl-5,6-dihydropyridazin-1 (4H)-yl)((phenylsulfonyl)imino)methyl)carbamimidothioate], the Ki (CB1; read-out: Ki (CB1)) is reported as 1600 nM.
Compound `COc1ccc(S(=O)(=O)/N=C(/N=C(/N)SC)N2CCC(c3ccccc3)C(c3ccc(Cl)cc3)=N2)cc1` (stereo not shown) [Compound 11h, methyl (Z)—N′—((Z)-(3-(4-chlorophenyl)-4-phenyl-5,6-dihydropyridazin-1 (4H)-yl)(((4-methoxyphenyl)sulfonyl)imino)methyl)carbamimidothioate] has a Ki (CB1; read-out: Ki (CB1)) of 1070 nM.
Work on `C[Se]/C(N)=N\C(=N\S(=O)(=O)c1ccc(Cl)cc1)N1CCC(c2ccccc2)C(c2ccc(Cl)cc2)=N1` (stereo not shown) [Compound 12a, methyl (Z)—N′—((Z)-(3-(4-chlorophenyl)-4-phenyl-5,6-dihydropyridazin-1 (4H)-yl)(((4-chlorophenyl)sulfonyl)imino)methyl)carbamimidoselenoate] yielded a Ki (CB1; read-out: Ki (CB1) in nM) of 45 nM.
`C[Se]/C(N)=N\C(=N\S(=O)(=O)c1ccc(OC(F)(F)F)cc1)N1CCC(c2ccccc2)C(c2ccc(Cl)cc2)=N1` (stereo not shown) [Compound 12d, methyl (Z)—N′—((Z)-(3-(4-chlorophenyl)-4-phenyl-5,6-dihydropyridazin-1 (4H)-yl)(((4-(trifluoromethoxy)phenyl)sulfonyl)imino)methyl)carbamimidoselenoate] was tested, and the Ki (CB1; read-out: Ki (CB1)) was 194 nM.
With `C[Se]/C(N)=N\C(=N\S(=O)(=O)c1ccc(C#N)cc1)N1CCC(c2ccccc2)C(c2ccc(Cl)cc2)=N1` (stereo not shown) [Compound 12e, methyl (Z)—N′—((Z)-(3-(4-chlorophenyl)-4-phenyl-5,6-dihydropyridazin-1 (4H)-yl)(((4-cyanophenyl)sulfonyl)imino)methyl)carbamimidoselenoate] the Ki (CB1; read-out: Ki (CB1)) was 179 nM.
Work on `C[Se]/C(N)=N\C(=N\S(=O)(=O)c1ccc2ccccc2c1)N1CCC(c2ccccc2)C(c2ccc(Cl)cc2)=N1` (stereo not shown) [Compound 12f, methyl (Z)—N′—((Z)-(3-(4-chlorophenyl)-4-phenyl-5,6-dihydropyridazin-1 (4H)-yl)((naphthalen-2-ylsulfonyl)imino)methyl)carbamimidoselenoate] yielded a Ki (CB1; read-out: Ki (CB1)) of 317 nM.
Work on `C[Se]/C(N)=N\C(=N\S(=O)(=O)c1ccccc1)N1CCC(c2ccccc2)C(c2ccc(Cl)cc2)=N1` (stereo not shown) [Compound 12g, methyl (Z)—N′—((Z)-(3-(4-chlorophenyl)-4-phenyl-5,6-dihydropyridazin-1 (4H)-yl)((phenylsulfonyl)imino)methyl)carbamimidoselenoate] yielded a Ki (CB1; read-out: Ki (CB1)) of 2800 nM.
`COc1ccc(S(=O)(=O)/N=C(/N=C(/N)[Se]C)N2CCC(c3ccccc3)C(c3ccc(Cl)cc3)=N2)cc1` (stereo not shown) [Compound 12h, methyl (Z)—N′—((Z)-(3-(4-chlorophenyl)-4-phenyl-5,6-dihydropyridazin-1 (4H)-yl)(((4-methoxyphenyl)sulfonyl)imino)methyl)carbamimidoselenoate] gave a Ki (CB1; read-out: Ki (CB1)) of 1100 nM.
Work on `C[Se]/C(N)=N/C(=N/S(=O)(=O)c1ccc(C(F)(F)F)cc1)N1CCC(c2ccccc2)C(c2ccc(F)cc2)=N1` (stereo not shown) [Compound 12i, methyl (E)-N′—((Z)-(3-(4-fluorophenyl)-4-phenyl-5,6-dihydropyridazin-1 (4H)-yl)(((4-(trifluoromethyl)phenyl)sulfonyl)imino)methyl)carbamimidoselenoate] yielded a Ki (CB1; read-out: Ki (CB1)) of 110 nM.
In the case of `CC(=O)N/C(N)=N\C(=N\S(=O)(=O)c1ccc(C#N)cc1)N1CCC(c2ccccc2)C(c2ccc(Cl)cc2)=N1` (stereo not shown) [Compound 13a, N—((Z)—N′—((Z)-(3-(4-chlorophenyl)-4-phenyl-5,6-dihydropyridazin-1 (4H)-yl)(((4-cyanophenyl)sulfonyl)imino)methyl)carbamimidoyl) acetamide], the Ki (CB1; read-out: Ki (CB1)) is reported as 24.6 nM.
`CC(=O)N/C(N)=N\C(=N\S(=O)(=O)c1ccc(C(F)(F)F)cc1)N1CCC(c2ccccc2)C(c2ccc(Cl)cc2)=N1` (stereo not shown) [Compound 14, N—((Z)—N′—((Z)-(3-(4-chlorophenyl)-4-phenyl-5,6-dihydropyridazin-1 (4H)-yl)(((4-(trifluoromethyl)phenyl)sulfonyl)imino)methyl)carbamimidoyl) acetamide] was tested, and the Ki (CB1; read-out: Ki (CB1)) was 5 nM.
For `O=S(=O)(/N=C(\N=C1/CCCN1)N1CCC(c2ccccc2)C(c2ccc(Cl)cc2)=N1)c1ccc(C(F)(F)F)cc1` (stereo not shown) [Compound 17, (E)-3-(4-chlorophenyl)-4-phenyl-N—((E)-pyrrolidin-2-ylidene)-N′-((4-(trifluoromethyl)phenyl)sulfonyl)-5,6-dihydropyridazine-1 (4H)-carboximidamide], the Ki (CB1; read-out: Ki (CB1)) was 117 nM.
`CCN(CC)/C(N)=N/C(=N/S(=O)(=O)c1ccc(C(F)(F)F)cc1)N1CCC(c2ccccc2)C(c2ccc(Cl)cc2)=N1` (stereo not shown) [Compound 18, (Z)—N—((E)-amino (diethylamino)methylene)-3-(4-chlorophenyl)-4-phenyl-N′-((4-(trifluoromethyl)phenyl)sulfonyl)-5,6-dihydropyridazine-1 (4H)-carboximidamide] showed a Ki (CB1; read-out: Ki (CB1)) of 536 nM.
`CC(C)(C)OC(=O)N/C(N)=N\C(=N\S(=O)(=O)c1ccc(C(F)(F)F)cc1)N1CCC(c2ccccc2)C(c2ccc(Cl)cc2)=N1` (stereo not shown) [Compound 19] was tested, and the Ki (CB1; read-out: Ki (CB1)) was 383 nM.
`O=S(=O)(/N=C(\NC12CC3CC(CC(C3)C1)C2)N1CCC(c2ccccc2)C(c2ccc(Cl)cc2)=N1)c1ccc(C(F)(F)F)cc1` (stereo not shown) [Compound 20, (E)-N-((3s,5s,7s)-adamantan-1-yl)-3-(4-chlorophenyl)-4-phenyl-N′-((4-(trifluoromethyl)phenyl)sulfonyl)-5,6-dihydropyridazine-1 (4H)-carboximidamide] was tested, and the Ki (CB1; read-out: Ki (CB1)) was 80.9 nM.
`O=C(O)CCCN/C(=N/S(=O)(=O)c1ccc(C(F)(F)F)cc1)N1CCC(c2ccccc2)C(c2ccc(Cl)cc2)=N1` (stereo not shown) [Compound 21, (Z)-4-(3-(4-chlorophenyl)-4-phenyl-N′-((4-(trifluoromethyl)phenyl)sulfonyl)-1,4,5,6-tetrahydropyridazine-1-carboximidamido) butanoic acid] was tested, and the Ki (CB1; read-out: Ki (CB1)) was 579 nM.
`NC(=S)NN/C(=N/S(=O)(=O)c1ccc(C(F)(F)F)cc1)N1CCC(c2ccccc2)C(c2ccc(Cl)cc2)=N1` (stereo not shown) [Compound 22, (Z)-2-((3-(4-chlorophenyl)-4-phenyl-5,6-dihydropyridazin-1 (4H)-yl)(((4-(trifluoromethyl)phenyl)sulfonyl)imino)methyl) hydrazine-1-carbothioamide] gave a Ki (CB1; read-out: Ki (CB1)) of 575 nM.
